Measured values from US11952368B2, “FAPI dimer compound, FAPI dimer-based positron emission tomography (PET) imaging agent for tumor diagnosis, and preparation method and use thereof” (XIAMEN UNIVERSITY, priority 2021, dated 2024).

Biological target: T1, FAP on CAFs (Homo sapiens, UniProt Q12884)
T1 construct: FAP-expressing CAFs were inoculated in a 24-well plate; endogenous in cells; host or cells: cancer-associated fibroblasts (CAFs)
T1 sequence (Q12884 1-760): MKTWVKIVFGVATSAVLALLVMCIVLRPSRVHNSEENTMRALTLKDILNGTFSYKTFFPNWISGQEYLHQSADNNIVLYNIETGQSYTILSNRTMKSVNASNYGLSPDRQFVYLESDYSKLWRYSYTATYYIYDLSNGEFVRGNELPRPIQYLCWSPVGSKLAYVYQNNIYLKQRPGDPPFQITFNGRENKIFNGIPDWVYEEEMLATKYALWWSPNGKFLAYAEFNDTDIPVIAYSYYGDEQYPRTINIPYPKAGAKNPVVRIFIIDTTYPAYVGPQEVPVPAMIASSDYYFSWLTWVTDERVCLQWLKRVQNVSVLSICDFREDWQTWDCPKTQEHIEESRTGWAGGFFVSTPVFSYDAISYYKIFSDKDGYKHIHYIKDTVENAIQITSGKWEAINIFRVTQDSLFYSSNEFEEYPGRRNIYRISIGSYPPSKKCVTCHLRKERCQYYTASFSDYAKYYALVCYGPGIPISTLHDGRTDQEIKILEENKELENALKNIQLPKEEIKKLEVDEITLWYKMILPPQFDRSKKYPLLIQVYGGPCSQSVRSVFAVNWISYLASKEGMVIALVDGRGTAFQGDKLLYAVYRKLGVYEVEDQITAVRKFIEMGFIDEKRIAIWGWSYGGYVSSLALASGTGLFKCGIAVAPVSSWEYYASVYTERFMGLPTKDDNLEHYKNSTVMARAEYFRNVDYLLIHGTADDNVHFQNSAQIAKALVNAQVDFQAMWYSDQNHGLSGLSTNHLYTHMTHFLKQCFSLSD
Experiment: FAP binding assay (radioligand competition) on CAFs
Procedure: FAP-expressing CAFs were inoculated in a 24-well plate and cultivated with a 10% (volume fraction) FBS-containing 1640 medium for 48 h before the experiment until a cell density was about 80% to 90%; the medium was changed to an FBS-free 1640 medium; and the ^68Ga-2PEG(3)-FAPI-dimer, ^68Ga-FAPI-46, or ^68Ga-2PEG(3)-FAPI-dimer+11.3 nmol FAPI-46 (for the blocking experiment) was added to the 24-well plate and incubated, with predetermined intervals of 10 min, 30 min, 60 min, 90 min, and 120 min. The FAP binding assay was conducted after a radiolabeled compound and a corresponding unlabeled FAPI derivative (1.27×10^−4-10^−13 mol/L of 2PEG(3)-FAPI-dimer was added to ^68Ga-2PEG(3)-FAPI-dimer; and 2.83×10^−4-1×10^−13 mol/L of FAPI-46 was added to ^68Ga-FAPI-46) were co-incubated for 60 min. A half-inhibitory concentration (IC50s) was calculated by using GraphPad Prism to fit data through nonlinear regression. In each step of the experiment, cells were washed twice with 1 mL of PBS. Finally, CAFs were lysed with 0.5 mL of a 1 mol/L NaOH aqueous solution to conduct radioactive counting with a gamma counter. 3 parallel replicates were set for each experiment.

How did the “IC50 value compared with FAPI-46” value turn out when CN(CCCN1CCN(C(=O)COCCOCCOCCNC(=O)CCC(=O)N[C@@H](CCCCNC(=O)CN2CCN(CC(=O)O)CCN(CC(=O)O)CCN(CC(=O)O)CC2)C(=O)NCCOCCOCCOCC(=O)N2CCN(CCCN(C)c3ccc4nccc(C(=O)NCC(=O)N5CC(F)(F)C[C@H]5C#N)c4c3)CC2)CC1)c1ccc2nccc(C(=O)NCC(=O)N3CC(F)(F)C[C@H]3C#N)c2c1 [2PEG(3)-FAPI-dimer] was run?
Its value is “similar”.
